The target in test [1] is T1, Tyrosine-protein kinase receptor TYRO3 (Homo sapiens) (UniProt Q06418).
T1 sequence (whole entry): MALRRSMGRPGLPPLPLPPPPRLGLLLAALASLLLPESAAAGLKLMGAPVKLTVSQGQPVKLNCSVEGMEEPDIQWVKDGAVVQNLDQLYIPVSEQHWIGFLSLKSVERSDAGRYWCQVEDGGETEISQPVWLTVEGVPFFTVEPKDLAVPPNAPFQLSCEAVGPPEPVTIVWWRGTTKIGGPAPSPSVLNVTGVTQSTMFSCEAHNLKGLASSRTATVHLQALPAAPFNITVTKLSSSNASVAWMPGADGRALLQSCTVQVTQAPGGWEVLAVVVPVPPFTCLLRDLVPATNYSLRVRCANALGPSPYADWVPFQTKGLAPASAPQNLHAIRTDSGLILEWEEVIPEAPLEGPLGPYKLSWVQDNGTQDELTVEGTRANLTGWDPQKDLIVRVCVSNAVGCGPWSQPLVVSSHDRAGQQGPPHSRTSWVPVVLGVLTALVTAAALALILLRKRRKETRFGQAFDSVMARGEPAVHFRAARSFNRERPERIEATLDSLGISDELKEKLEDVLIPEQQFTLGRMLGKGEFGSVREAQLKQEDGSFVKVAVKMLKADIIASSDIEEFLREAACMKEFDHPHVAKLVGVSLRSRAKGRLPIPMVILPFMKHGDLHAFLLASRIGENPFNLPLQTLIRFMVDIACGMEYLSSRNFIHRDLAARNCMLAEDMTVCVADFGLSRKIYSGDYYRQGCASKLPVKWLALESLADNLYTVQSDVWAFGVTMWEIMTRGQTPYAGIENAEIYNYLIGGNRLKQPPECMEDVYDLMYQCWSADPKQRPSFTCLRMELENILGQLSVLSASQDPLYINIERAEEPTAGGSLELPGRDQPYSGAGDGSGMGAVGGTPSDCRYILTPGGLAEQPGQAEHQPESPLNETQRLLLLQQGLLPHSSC
Description: Inhibition of TYRO3 in human NCI-H929 cells at 10 uM by mass spectroscopic analysis relative to control. It counts as cell-based.

Test [2] addresses 5'-AMP-activated protein kinase catalytic subunit alpha-2 (Homo sapiens) (UniProt P54646). The test is described as follows: Inhibition of AMPKa2 in human NCI-H929 cells at 10 uM by mass spectroscopic analysis relative to control. The class given is cell-based.
Test [3] concerns the target Ribosomal protein S6 kinase alpha-2 (Homo sapiens) (UniProt Q15349). Description: Inhibition of RSK3 domain 1 in human NCI-H929 cells at 10 uM by mass spectroscopic analysis relative to control. It counts as cell-based.
The target of test [4] is T2, Serine/threonine-protein kinase TAO3 (Homo sapiens) (UniProt Q9H2K8).
T2 sequence (whole entry): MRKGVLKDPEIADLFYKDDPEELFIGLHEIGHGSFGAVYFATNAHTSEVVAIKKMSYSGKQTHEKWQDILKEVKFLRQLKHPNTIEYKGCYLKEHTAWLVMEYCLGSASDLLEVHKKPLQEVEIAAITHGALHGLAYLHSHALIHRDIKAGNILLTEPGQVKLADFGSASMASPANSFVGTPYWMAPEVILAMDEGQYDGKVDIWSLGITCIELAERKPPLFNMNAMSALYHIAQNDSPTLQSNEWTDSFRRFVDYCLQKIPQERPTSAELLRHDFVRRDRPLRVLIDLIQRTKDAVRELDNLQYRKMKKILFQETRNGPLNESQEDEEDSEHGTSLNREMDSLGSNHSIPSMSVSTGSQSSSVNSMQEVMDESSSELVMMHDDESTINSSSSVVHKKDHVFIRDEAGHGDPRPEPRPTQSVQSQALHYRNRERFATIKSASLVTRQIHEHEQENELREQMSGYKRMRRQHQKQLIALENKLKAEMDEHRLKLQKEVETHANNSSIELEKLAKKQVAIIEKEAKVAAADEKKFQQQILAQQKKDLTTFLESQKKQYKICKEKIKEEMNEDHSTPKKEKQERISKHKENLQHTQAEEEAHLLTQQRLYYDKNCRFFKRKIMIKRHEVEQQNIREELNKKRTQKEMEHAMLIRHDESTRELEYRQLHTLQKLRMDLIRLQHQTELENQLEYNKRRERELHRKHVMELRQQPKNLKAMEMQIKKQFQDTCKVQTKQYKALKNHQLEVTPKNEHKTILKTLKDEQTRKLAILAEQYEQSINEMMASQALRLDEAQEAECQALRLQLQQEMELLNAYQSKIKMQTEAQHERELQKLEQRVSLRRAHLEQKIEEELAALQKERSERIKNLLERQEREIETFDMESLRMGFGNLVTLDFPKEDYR
The test is described as follows: Inhibition of TAO3 in human NCI-H929 cells at 10 uM by mass spectroscopic analysis relative to control. The class given is cell-based.

Test [5] concerns the target Misshapen-like kinase 1 (Homo sapiens) (UniProt Q8N4C8). Description: Inhibition of MINK in human NCI-H929 cells at 10 uM by mass spectroscopic analysis relative to control. The class given is cell-based.
Test [6] has as its target Activin receptor type-1C (Homo sapiens) (UniProt Q8NER5). The test is described as follows: Inhibition of ALK7 in human NCI-H929 cells at 10 uM by mass spectroscopic analysis relative to control. It counts as cell-based.
Test [7] concerns the target Cyclin-dependent kinase 17 (Homo sapiens) (UniProt Q00537). The test is described as follows: Inhibition of PCTAIRE2 in human NCI-H929 cells at 10 uM by mass spectroscopic analysis relative to control. It counts as cell-based.
Test [8] deals with Cyclin-dependent kinase 11B (Homo sapiens) (UniProt P21127). The test is described as follows: Inhibition of PITSLRE in human NCI-H929 cells at 10 uM by mass spectroscopic analysis relative to control. It counts as cell-based.
Test [9] concerns the target 5'-AMP-activated protein kinase catalytic subunit alpha-1 (Homo sapiens) (UniProt Q13131). Description: Inhibition of AMPKa1 in human NCI-H929 cells at 10 uM by mass spectroscopic analysis relative to control. The class given is cell-based.
Test [10] addresses Tyrosine-protein kinase ABL2 (Homo sapiens) (UniProt P42684). The test is described as follows: Inhibition of ARG in human NCI-H929 cells at 10 uM by mass spectroscopic analysis relative to control. The class given is cell-based.
Test [11] has as its target Microtubule-associated serine/threonine-protein kinase 1 (Homo sapiens) (UniProt Q9Y2H9). Description: Inhibition of MAST1 in human NCI-H929 cells at 10 uM by mass spectroscopic analysis relative to control. The class given is cell-based.
Test [12] concerns the target Cyclin-dependent kinase 19 (Homo sapiens) (UniProt Q9BWU1). The test is described as follows: Inhibition of CDK11 in human NCI-H929 cells at 10 uM by mass spectroscopic analysis relative to control. It counts as cell-based.
In test [13] the target is Serine/threonine-protein kinase 26 (Homo sapiens) (UniProt Q9P289). Description: Inhibition of MST4 in human NCI-H929 cells at 10 uM by mass spectroscopic analysis relative to control. It counts as cell-based.
In test [14] the target is Rho-associated protein kinase 2 (Homo sapiens) (UniProt O75116). The test is described as follows: Inhibition of ROCK2 in human NCI-H929 cells at 10 uM by mass spectroscopic analysis relative to control. It counts as cell-based.
Test [15] has as its system MM1.S. The test is described as follows: Downregulation of phosphorylated-MOB1 protein level in human MM1.S cells at 1 to 10 uM measured after 6 hrs by Western blot analysis. The class given is functional, cell-based. The note with it: dose 1-10 µM. In general terms: In western blotting, separated proteins are transferred to a membrane and probed.

Activity calls are given as the source filed them. No cut-off for these calls is given here.

5'-AMP-activated protein kinase catalytic subunit alpha-2 (Homo sapiens), sequence (P54646 whole entry, looked up, the tested form may be a part): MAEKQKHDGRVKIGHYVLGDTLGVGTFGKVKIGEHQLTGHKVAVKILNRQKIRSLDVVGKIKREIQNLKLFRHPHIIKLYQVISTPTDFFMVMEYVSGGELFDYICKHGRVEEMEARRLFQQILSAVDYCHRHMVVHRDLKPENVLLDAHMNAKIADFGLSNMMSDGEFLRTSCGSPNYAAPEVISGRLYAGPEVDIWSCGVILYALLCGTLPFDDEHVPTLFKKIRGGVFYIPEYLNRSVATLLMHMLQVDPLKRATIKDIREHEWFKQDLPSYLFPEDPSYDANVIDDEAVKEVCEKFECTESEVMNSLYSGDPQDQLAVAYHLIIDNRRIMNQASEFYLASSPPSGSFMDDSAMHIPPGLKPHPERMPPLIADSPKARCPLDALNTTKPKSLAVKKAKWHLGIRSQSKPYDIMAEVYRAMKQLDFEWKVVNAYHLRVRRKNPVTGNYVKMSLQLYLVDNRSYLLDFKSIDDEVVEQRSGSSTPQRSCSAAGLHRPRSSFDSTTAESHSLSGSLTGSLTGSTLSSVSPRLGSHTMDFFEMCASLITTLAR
Serine/threonine-protein kinase 26 (Homo sapiens), sequence (Q9P289 2-416 limits assumed): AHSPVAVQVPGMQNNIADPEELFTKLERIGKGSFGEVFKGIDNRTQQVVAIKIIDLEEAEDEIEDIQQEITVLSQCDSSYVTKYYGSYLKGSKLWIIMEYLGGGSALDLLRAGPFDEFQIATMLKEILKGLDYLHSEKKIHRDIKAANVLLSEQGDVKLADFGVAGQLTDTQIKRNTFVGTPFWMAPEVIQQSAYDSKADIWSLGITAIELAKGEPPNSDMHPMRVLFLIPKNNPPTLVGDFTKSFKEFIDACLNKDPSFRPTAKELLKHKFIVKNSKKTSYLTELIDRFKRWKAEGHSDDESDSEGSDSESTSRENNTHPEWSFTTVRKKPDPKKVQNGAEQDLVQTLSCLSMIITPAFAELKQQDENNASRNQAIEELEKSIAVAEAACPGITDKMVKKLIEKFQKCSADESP
Tyrosine-protein kinase ABL2 (Homo sapiens), sequence (P42684 whole entry): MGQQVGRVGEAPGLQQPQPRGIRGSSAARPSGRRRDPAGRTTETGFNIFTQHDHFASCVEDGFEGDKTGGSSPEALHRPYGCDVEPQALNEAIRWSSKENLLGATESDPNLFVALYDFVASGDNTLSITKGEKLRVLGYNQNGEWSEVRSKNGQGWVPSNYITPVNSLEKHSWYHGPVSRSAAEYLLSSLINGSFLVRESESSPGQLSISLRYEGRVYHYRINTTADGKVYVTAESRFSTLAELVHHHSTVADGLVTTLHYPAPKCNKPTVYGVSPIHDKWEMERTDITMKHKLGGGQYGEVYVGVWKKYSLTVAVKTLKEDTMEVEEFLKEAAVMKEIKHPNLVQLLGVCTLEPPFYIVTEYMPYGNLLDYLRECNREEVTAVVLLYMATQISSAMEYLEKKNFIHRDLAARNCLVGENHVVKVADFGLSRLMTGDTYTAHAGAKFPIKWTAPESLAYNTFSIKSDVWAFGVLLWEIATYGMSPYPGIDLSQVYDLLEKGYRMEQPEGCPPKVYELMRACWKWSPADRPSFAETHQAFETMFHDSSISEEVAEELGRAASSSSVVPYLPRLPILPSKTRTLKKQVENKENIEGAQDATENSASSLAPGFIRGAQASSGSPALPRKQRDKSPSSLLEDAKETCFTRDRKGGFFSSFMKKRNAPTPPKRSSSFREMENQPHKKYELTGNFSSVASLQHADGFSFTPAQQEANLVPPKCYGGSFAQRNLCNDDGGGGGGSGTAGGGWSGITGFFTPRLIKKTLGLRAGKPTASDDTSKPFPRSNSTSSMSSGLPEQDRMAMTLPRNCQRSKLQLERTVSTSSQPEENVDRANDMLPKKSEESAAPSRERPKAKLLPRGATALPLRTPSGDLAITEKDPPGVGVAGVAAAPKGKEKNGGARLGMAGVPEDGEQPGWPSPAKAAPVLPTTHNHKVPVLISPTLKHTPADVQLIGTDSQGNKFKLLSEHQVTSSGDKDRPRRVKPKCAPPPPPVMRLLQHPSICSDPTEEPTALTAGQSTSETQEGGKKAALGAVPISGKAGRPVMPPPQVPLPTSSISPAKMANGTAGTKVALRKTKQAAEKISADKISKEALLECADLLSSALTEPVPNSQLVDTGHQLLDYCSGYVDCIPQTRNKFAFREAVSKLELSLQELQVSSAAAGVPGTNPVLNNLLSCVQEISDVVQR
Microtubule-associated serine/threonine-protein kinase 1 (Homo sapiens), sequence (Q9Y2H9 whole entry, looked up): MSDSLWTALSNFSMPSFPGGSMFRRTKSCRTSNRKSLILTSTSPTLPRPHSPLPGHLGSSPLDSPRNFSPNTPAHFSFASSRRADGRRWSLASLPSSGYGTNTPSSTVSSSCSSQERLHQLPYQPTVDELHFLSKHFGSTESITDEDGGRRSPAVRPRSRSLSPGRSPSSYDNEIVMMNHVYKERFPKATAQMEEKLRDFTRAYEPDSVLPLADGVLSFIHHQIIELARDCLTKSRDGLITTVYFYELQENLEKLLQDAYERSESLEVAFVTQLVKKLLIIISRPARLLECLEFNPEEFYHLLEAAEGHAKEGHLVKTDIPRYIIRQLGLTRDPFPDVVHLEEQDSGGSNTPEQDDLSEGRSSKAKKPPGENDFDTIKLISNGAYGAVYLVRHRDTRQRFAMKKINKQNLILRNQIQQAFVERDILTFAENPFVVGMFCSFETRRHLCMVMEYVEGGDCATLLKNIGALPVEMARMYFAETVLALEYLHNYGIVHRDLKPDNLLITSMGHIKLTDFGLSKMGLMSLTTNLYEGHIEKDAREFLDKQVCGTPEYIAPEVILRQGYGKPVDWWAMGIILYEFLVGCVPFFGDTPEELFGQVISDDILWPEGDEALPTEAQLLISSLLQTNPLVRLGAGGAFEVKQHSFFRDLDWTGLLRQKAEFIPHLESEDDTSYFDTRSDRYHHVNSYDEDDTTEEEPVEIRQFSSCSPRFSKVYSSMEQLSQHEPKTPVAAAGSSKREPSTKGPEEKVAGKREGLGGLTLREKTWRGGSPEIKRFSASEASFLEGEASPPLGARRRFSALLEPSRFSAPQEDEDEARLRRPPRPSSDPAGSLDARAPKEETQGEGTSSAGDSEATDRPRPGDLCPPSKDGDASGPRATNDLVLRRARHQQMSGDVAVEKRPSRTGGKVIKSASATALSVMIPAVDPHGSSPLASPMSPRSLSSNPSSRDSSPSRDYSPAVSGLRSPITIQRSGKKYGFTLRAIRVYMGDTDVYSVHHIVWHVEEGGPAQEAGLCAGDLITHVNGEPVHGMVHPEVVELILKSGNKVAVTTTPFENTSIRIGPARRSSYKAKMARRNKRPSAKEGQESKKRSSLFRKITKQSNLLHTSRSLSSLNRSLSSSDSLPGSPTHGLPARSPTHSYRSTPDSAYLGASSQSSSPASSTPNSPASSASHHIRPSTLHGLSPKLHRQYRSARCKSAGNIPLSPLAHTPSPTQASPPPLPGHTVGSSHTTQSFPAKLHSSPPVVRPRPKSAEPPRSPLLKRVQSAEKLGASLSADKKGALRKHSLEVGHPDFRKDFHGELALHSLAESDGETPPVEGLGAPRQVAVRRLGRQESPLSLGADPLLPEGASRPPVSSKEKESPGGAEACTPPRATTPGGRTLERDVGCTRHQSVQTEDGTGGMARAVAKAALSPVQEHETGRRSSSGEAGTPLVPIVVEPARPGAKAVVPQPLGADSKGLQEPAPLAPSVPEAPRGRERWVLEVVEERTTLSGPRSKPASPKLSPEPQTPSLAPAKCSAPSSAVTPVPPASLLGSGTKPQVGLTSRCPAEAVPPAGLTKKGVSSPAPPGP
5'-AMP-activated protein kinase catalytic subunit alpha-1 (Homo sapiens), sequence (Q13131 whole entry, looked up): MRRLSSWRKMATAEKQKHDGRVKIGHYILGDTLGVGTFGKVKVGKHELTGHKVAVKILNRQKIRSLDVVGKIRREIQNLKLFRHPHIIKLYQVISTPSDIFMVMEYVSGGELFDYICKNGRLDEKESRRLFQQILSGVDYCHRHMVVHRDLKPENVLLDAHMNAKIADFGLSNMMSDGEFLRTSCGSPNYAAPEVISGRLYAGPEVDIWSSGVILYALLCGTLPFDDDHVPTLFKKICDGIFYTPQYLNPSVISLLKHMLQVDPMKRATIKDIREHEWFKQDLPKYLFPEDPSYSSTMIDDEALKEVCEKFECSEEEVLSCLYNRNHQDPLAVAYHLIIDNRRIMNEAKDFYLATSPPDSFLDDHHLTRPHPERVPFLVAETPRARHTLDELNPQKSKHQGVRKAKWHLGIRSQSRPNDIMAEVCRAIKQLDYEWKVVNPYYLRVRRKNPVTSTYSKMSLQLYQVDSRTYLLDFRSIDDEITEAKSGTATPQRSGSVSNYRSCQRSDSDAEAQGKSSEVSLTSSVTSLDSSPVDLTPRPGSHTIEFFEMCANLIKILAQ
Cyclin-dependent kinase 17 (Homo sapiens), sequence (Q00537 whole entry, looked up): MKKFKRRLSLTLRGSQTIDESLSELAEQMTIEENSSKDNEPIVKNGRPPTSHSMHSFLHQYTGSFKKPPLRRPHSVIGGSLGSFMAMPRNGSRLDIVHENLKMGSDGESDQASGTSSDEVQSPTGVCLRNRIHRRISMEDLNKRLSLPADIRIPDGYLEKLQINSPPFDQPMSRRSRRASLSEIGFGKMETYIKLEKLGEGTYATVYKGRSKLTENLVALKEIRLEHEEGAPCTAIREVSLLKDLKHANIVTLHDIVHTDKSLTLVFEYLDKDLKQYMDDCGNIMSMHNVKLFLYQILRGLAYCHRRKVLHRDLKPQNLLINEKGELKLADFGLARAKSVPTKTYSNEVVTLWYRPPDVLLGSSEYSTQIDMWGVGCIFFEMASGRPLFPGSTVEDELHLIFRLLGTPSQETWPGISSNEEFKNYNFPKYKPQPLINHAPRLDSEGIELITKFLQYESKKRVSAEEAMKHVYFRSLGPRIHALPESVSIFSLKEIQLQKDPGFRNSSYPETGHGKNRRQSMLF

As usually defined, the inhibition is the percentage by which the read-out fell short of the control. Lower therefore signals a response near the control. Take `COc1cc(NS(=O)(=O)C2CC2)ccc1-c1cnc(N)c(-c2ccc3c(c2)CCNC3=O)c1`: the inhibition stood at 0% in test [1]; 0% in test [2]; 0% in [3]; 0% in [4]; 50% in [5]; 75% in test [6]. The inhibition in [7], in test [8], in [9], in test [10] and in test [11] was 0% each time.
On to `Nc1ncc(-c2cccc3ncsc23)cc1-c1ccc2c(c1)CCNC2=O`, for which the inhibition in test [12] was 50%; in test [2], 0%; in [3], 0%; in test [4] it was 0%; in test [5] it was greater than 90%; in [8] it was 0%. Also, the inhibition in [13] is 0%; in test [14], 0%; in test [9] it was 0%; in [10] it was 50%. Also, the result in [15] was Active.
For `Nc1ncc(-c2cccc([N+](=O)[O-])c2F)cc1-c1ccc2c(c1)CCNC2=O`, the inhibition is greater than 90% in test [5], 0% in [13] and 0% in test [14]. For the same compound, the result in test [15] was Active.
Take `Nc1ncc(-c2ccc(NS(=O)(=O)C3CC3)cc2OC2CCCCC2)cc1-c1ccc2c(c1)CCNC2=O`: the inhibition in test [1] is 0%; in [12], 0%; in [3], 50%; in [4], 0%; in [5], 50%; in [6], greater than 90%. Besides, the inhibition in test [7], in [8], in test [10] and in [11] was 0% each time.
`Nc1ncc(-c2ccc(NS(=O)(=O)C3CC3)cc2F)cc1-c1ccc2c(c1)CCNC2=O`: the inhibition in test [1], in [12], in test [2], in test [3], in test [7] and in [8] was 0% in each case. Besides, the inhibition in test [13] is less than 75%; in test [9], 0%; in test [10], 0%; in test [11], 0%.
On to `CN(C1CC1)S(=O)(=O)c1ccc(-c2cnc(N)c(-c3ccc4c(c3)CCNC4=O)c2)c(F)c1`, for which the inhibition in [12] was 0%; in [2], 0%; in test [3], 0%; in test [5], greater than 90%; in test [8], 0%; in test [13], less than 90%. The inhibition in [14], in [9] and in test [10] was 0% each time. In test [15], the result was Active.

These data come from ChEMBL document CHEMBL4804281, “STK4 inhibitors for treatment of hematologic malignancies” (2020).
